{
  "source": "patent US20070054868A1",
  "about": "“Synergistic polyphenol compounds, compositions thereof, and uses thereof” (The Trustees of Columbia University in the City of New York, priority 2005, published 2007)",
  "key": {"IGF-2": {"tested_on": "IGF-2", "test": "Production of growth factors in HepG2 cells", "type": "cell-based, human", "conditions": "20 μg/mL, listed as EGCG", "procedure": "(§1) The cells were treated with […] EGCG at 0, 3, 6, 12, 24 and 48 hours, and cell extracts were examined by Western blot analysis using the respective antibodies, or were examined by semiquantitative RT-PCR analysis using IGFBP-3 or IGF-1 specific primers.\n(§2) Using the MTT cell proliferation assay described in Example 21, and substituting HepG2 human liver cancer cells in place of SW837 cells, the effects of EGCG (20 μg/mL), an illustrative Synergistic Polyphenol Compound, on the production of IGF-1, IGF-2 and IGFBP-3 was determined. […] Accordingly, the Synergistic Polyphenol Compounds are useful for treating or preventing liver cancer."}, "IGF-1": {"tested_on": "IGF-1", "test": "Production of growth factors in HepG2 cells", "type": "cell-based, human", "conditions": "20 μg/mL, listed as EGCG", "procedure": "as §1, §2"}, "[1]": {"tested_on": "HepG2 human liver cancer cells", "test": "MTT cell proliferation assay", "type": "cell-based", "procedure": "as §2"}, "[2]": {"tested_on": "EGFR, ERK1, ERK2, and AKT", "test": "Phosphorylation of signaling proteins in HT29 cells", "type": "cell-based, human", "procedure": "(§3) These effects were detected with as little as […] of EGCG, and within 5 minutes. Phosphorylation of EGFR, ERK1, ERK2, and AKT were suppressed in cells treated with methyl-β-cyclodextrin, which depletes plasma membrane cholesterol. […] In addition, the inhibitory effect of EGCG on phosphorylation of EGFR was not blocked by the addition of cholesterol on the growth medium. These findings provide evidence that EGCG can alter membrane domain organization in colon cancer cells ant that this is not due to cholesterol depletion. It was noted that pre-treatment of the cells with EGCG or Poly E inhibited the binding of Alexa 488-labeled EGF to the cell surface receptor EGFR."}, "IGFBP-3 mRNA": {"tested_on": "IGFBP-3 mRNA", "test": "Semiquantitative RT-PCR analysis in SW837 cells", "type": "cell-based, human", "conditions": "20 μg/mL, at 3 to 12 hours, maximum at 6 hours", "procedure": "(§4) RNA extraction and semiquantitative RT-PCR analysis were performed as described above in Example 7. Total RNA was isolated from SW837 human colon cancer cells using the Trizol reagent (Invitrogen) according to the manufacturer's instructions. cDNA was amplified from 1 μg of total RNA using Superscript one-step RT-PCR with the platinum Taq system (Invitrogen). Actin specific primer sets are described in Suzui, et al., Cancer Res., 62:3997-4006 (2002). […] Each amplification cycle consisted of 0.5 minutes at 94° C. for denaturation, 0.5 minutes at 55° C. for primer annealing, and 1 minute at 72° C. for extension. After PCR amplification, the fragments were analyzed by agarose gel electrophoresis and stained with ethidium bromide. The intensities of bands were quantified with NIH Image software version 1.62."}, "MMP-7 mRNA": {"tested_on": "MMP-7 mRNA", "test": "Semiquantitative RT-PCR analysis in SW837 cells", "type": "cell-based, human", "conditions": "20 μg/mL, at 12 hours, additional decrease at 24 to 48 hours", "procedure": "as §4"}, "TGF-β2 mRNA": {"tested_on": "TGF-β2 mRNA", "test": "Semiquantitative RT-PCR analysis in SW837 cells", "type": "cell-based, human", "conditions": "20 μg/mL, at 3 hours", "procedure": "as §4"}, "IGF-1 mRNA": {"tested_on": "IGF-1 mRNA", "test": "Semiquantitative RT-PCR analysis in SW837 cells", "type": "cell-based, human", "conditions": "20 μg/mL, at 12 hours, additional decline at 24 and 48 hours", "procedure": "as §4"}, "MMP-9 mRNA": {"tested_on": "MMP-9 mRNA", "test": "Semiquantitative RT-PCR analysis in SW837 cells", "type": "cell-based, human", "conditions": "20 μg/mL, at 12 hours, additional decrease at 24 to 48 hours", "procedure": "as §4"}, "PGE2": {"tested_on": "PGE2", "test": "PGE2 production assay (EIA) in SW837 cells", "type": "cell-based, human", "conditions": "10, 20 or 40 μg/mL, 18 hours, 20 μM arachidonic acid", "procedure": "SW837 human colon cancer cells were plated into 35-mm dishes and grown to 60% confluence. The cells were then treated with EGCG (0, 10, 20, or 40 μg/mL) in serum minus medium containing 20 μM arachidonic acid (Sigma) for 18 hours. The cell free medium was then collected and the amounts of PGE2 released by cells into the medium were measured using an EIA kit (Cayman Chemicals, Ann Arbor, Mich.), according to the manufacturer's instructions. Production of PGE2 was normalized to the protein concentration of the cells."}, "[3]": {"tested_on": "SW837 human colon cancer cells", "test": "DNA fragmentation assay (Cell Death Detection ELISA), apoptosis", "type": "cell-based", "procedure": "SW837 human colon cancer cells (5.0×10^5 cells/6-cm diameter dish) were treated with EGCG (1.0 or 20 μg/mL) for 48 or 96 hours, and samples were then prepared. Control cells were treated only with DMSO. The extent of DNA fragmentation at time 0 hours was set to 1 and increases expressed as fold activation."}, "[4]": {"tested_on": "HT29 human colon cancer cells", "test": "DilC16-labelled plasma membrane, extraction using cold Triton X-100", "type": "cell-based", "procedure": "HT29 human colon cancer cells were treated with the fluorescent lipid analog DilC16, which preferentially incorporates into ordered domains in the plasma membrane."}, "HT29 cells [5]": {"tested_on": "HT29 cells", "test": "Incorporation of DilC16 into the plasma membrane after pretreatment", "type": "cell-based, human", "conditions": "HT29 pretreated with test substance"}, "HT29 cells [6]": {"tested_on": "HT29 cells", "test": "Filipin staining of plasma membrane cholesterol", "type": "cell-based, human", "procedure": "as §3"}, "FHC": {"tested_on": "FHC", "test": "Growth inhibition IC50 against normal fetal colon cell line", "type": "cell-based, human", "conditions": "conclusion from Table 4", "from_the_text": "Cell lines and cell culture. The Caco2, HCT116, HT29, SW480, and SW837 human colorectal cancer cell lines and the FHC normal human fetal colon cell line were obtained from American Type Culture Collection (Manassas, Va.). All cell lines were maintained in DF10 medium containing DMEM (Invitrogen, San Diego, Calif.) supplemented with 10% fetal bovine serum (Invitrogen). The FHC cell line was originally established from the colon of a human fetus at 13 weeks of gestation and has an epithelial morphology. Cells were cultured in an incubator with humidified air at 37° C. with 5% CO2. As an untreated solvent control, cells were treated with DMSO (Sigma Chemical Co., St. Louis, Mo.) at a final concentration of <0.1%. […] Cells to be tested against were plated onto 96-well plates (3×10^3 cells/well) and twenty-four hours later, the cells were treated with an illustrative Synergistic Polyphenol Composition, or one or more illustrative Synergistic Polyphenol Compounds. Neither the medium nor the test compounds were changed during this time period. The assay was done in triplicate. […] The medium and test compounds were not changed during this time period. As a control, the cells were treated with 0.1% DMSO. […] The numbers of cells in replica plates were then determined using a Coulter Counter (Beckman Coulter Co., Fullerton, Calif.) as described in Shimizu et al., Clin. Cancer Res. 2004: 10:1130-40."}, "[7]": {"conditions": "HT29, Triton X-100 sensitivity and DilC16 incorporation"}},
  "note": "Entries after “also recorded” stand apart in the source; their conditions may differ.",
  "data": [
    {"substance": "(−)-epigallocatechin gallate", "values": [
      {"measurement": "production of IGF-2", "setting": "IGF-2", "value": "inhibited production; also recorded: decreased the production"},
      {"measurement": "production of IGF-1", "setting": "IGF-1", "value": "inhibited production; also recorded: decreased the production"},
      {"measurement": "IC50, growth of HepG2 cells", "setting": "[1]", "value": 21, "unit": "µg/mL"},
      {"measurement": "inhibitory effect on phosphorylation of EGFR on addition of cholesterol to the growth medium", "setting": "[2]", "value": "not blocked"},
      {"measurement": "levels of IGFBP-3 mRNA", "setting": "IGFBP-3 mRNA", "value": "increase"},
      {"measurement": "cellular level of MMP-7 mRNA", "setting": "MMP-7 mRNA", "value": "marked decrease"},
      {"measurement": "level of TGF-β2 mRNA", "setting": "TGF-β2 mRNA", "value": "transiently increased"},
      {"measurement": "level of IGF-1 mRNA", "setting": "IGF-1 mRNA", "value": "decrease"},
      {"measurement": "cellular level of MMP-9 mRNA", "setting": "MMP-9 mRNA", "value": "marked decrease"},
      {"measurement": "levels of PGE2", "setting": "PGE2", "value": "decrease"},
      {"measurement": "apoptosis (DNA fragmentation)", "setting": "[3]; 1.0 μg/mL, 96 hours", "value": "significant increase"},
      {"measurement": "apoptosis (DNA fragmentation)", "setting": "[3]; 20 μg/mL, 48 hours", "value": "induction of apoptosis"},
      {"measurement": "lowest concentration at which the membrane effects were detected", "setting": "[4]; [7]", "value": 2, "unit": "mg/mL"},
      {"measurement": "time within which the membrane effects were detected", "setting": "[4]; [7]", "value": "≤ 5", "unit": "min"},
      {"measurement": "sensitivity of the plasma membrane to extraction using cold Triton X-100", "setting": "[4]; HT29 pretreated with DilC16", "value": "marked increase"},
      {"measurement": "subsequent incorporation of DilC16 into the plasma membrane", "setting": "HT29 cells [5]", "value": "inhibit"},
      {"measurement": "effects on plasma membrane properties versus cholesterol depletion (filipin staining)", "setting": "HT29 cells [6]", "value": "not associated with cholesterol depletion"},
      {"measurement": "growth inhibition of colorectal cancer cells relative to FHC normal cells", "setting": "FHC", "value": "preferentially inhibit"}
    ]}
  ]
}
